# Columns and labels:
# [1] = Inhibitory activity of compound was tested against peroxinitrite of collagen type I with concentration 50 uM of each sample was treated with 1.0 mM peroxynitrite
# [2] = Inhibitory activity of compound was tested against peroxinitrite in collagen type I with concentration 50 uM of each sample was treated with 1.0 mM peroxynitrite
# [3] = Inhibitory activity of compound was tested against peroxinitrite in collagen type I at concentration 100 uM of each sample was treated with 1.0 mM peroxynitrite
smiles,measurement,setting,value
COc1cc([C@H]2c3c(cc(OC)c(O)c3OC)C=C(C(=O)O)[C@@H]2C(=O)O)cc(OC)c1O,Activity,[1],0.7
COc1cc(/C=C(C(=O)O)\C(=C/c2cc(OC)c(O)c(OC)c2)C(=O)O)cc(OC)c1O,Activity,[2],0.25
COc1cc(/C=C/C(=O)O)cc(OC)c1O,Activity,[3],0.3
same,Activity,[2],1

# Source: ChEMBL document CHEMBL1135253, “Formation of thomasidioic acid from dehydrosinapinic acid dilactone under neutral conditions, and a remaining inhibitory activity against peroxynitrite-mediated protein nitration” (Bioorg Med Chem Lett, 2002)
